Experimental data taken from patent US9744164B2, “Neuroprotective polyphenol analogs” (Salk Institute for Biological Studies, priority 2011, dated 2017).

How the values were obtained:
Akita mouse = conditions: Maher et al. 2011; cited from earlier work
mice = conditions: oral dose; cited from earlier work
RGC-5 nerve cells = experiment: chemical ischemia model (IAA) in RGC-5 cells; format: cell-based; conditions: RGC-5, 30 μM IAA 2 hr, Baicalein 5-25 μM, also added 2 hrs after insult
Protocol: FIG. 5D—RGC-5 nerve cells were treated with 30 μM iodoacetic acid for 2 hr in the presence or absence of 5-25 μM Baicalein. In some experiments, Baicalein was added 2 hr after the ischemic event. Cell survival (%) was measured after 24 hr by the MTT assay. Baicalein added before (□) or 2 hr after (●) ischemia. […] When these cells are starved for glucose, there is approximately 70% maximal survival in the presence of NGF. Baicalein promotes over 80% survival (FIG. 5C).

[1] = test system: embolic strokes in rabbits; experiment: rabbit small clot embolic stroke model (RSCEM); format: in vivo
Source text: The ability of polyphenol analogs to treat, prevent and/or mitigate one or more symptoms of stroke can also be evaluated in in vivo assays. Such assays are known in the art and find use. One applicable in vivo screening assay is the rabbit clot embolic stroke model, discussed, e.g., in Lapchak, et al., Stroke (2002) 33(9):2279-84 and Lapchak, Exp Neurol. (2007) 205(2):407-13. The rabbit small clot embolic stroke model (RSCEM) and rabbit large clot embolic stroke model (RLCEM) can be used to determine the potential neuroprotective properties and safety profile of test polyphenol analogs after an embolic stroke. Rabbits are embolized by injecting small blood clots (RSCEM) or large blood clots (RLCEM) into the cerebral circulation. Behavioral analysis is conducted 24 hours later, allowing for determination of the effective stroke dose (ES50) or clot amount (milligrams) that produces severe neurological deficits in 50% of rabbits. A drug is considered neuroprotective if it increases the ES50 compared with the vehicle-treated control group.
Either vehicle or bolus injections of chlorogenic acid were administered intravenously over 1 minute starting 5 minutes following embolization using a suspension of small-sized blood clots. In this series of studies, CGA was administered at 50 mg/kg. Behavioral analysis was conducted at 24 hours following treatment, which allowed for the construction of quantal dose-response analysis curves. […] For the superimposed graphs, normal animals are plotted on the y-axis at 0% and abnormal animals are plotted at 100%. […] Moreover, CGA increased the P50 value (the clot dose that produces abnormality in 50% of a treatment group) compared to vehicle control. For a detailed discussion of the methods used to fit the quantal data to a sigmoidal curve, see Zivin and Waud. The pharmacology of chlorogenic acid in the rabbit small clot embolic stroke model (RSCEM) has been published (Lapchak, Exp Neurol. 2007 205(2):407-13). In the manuscript, it is shown that CGA has a therapeutic window of 60 minutes in the RSCEM. FIG. 2 presents the therapeutic window data.
Using the RSCEM assay described above for CGA, the effects of Fisetin (50 mg/kg) on behavioral outcome measured 24 hours following embolization is tested.

Row | Compound | elevation of blood sugar (Akita mouse) | kidney hypertrophy and albuminuria (Akita mouse) | memory (mice) | cell death in chemical ischemia model (RGC-5 nerve cells) | behavior when administered 1 hour following embolization ([1]; 1 hour following embolization) | behavior when administered 3 hours following embolization ([1]; 3 hours following embolization)
1 | O=c1c(O)c(-c2ccc(O)c(O)c2)oc2cc(O)ccc12 [Fisetin, 3,7,3′,4′-tetrahydroxy flavone] | no effect | reduced | potentiates memory equally as well as rolipram |  |  | 
2 | O=c1cc(-c2ccccc2)oc2cc(O)c(O)c(O)c12 [Baicalein, 5,6,7-trihydroxyflavone] |  |  |  | prevents cell death | effective at improving behavior | neither improve behavior
